# How the values were obtained:
# [1] = test system: HBV; assay: HBV-DNA antiviral assay using HepG2.117 cells; type: cell-based, HBV genotype D; conditions: HBV DNA inhibition, intracellular HBV DNA by qPCR, HepG2.117 cells, 3 days incubation; read-out: EC50
# [2] = test system: HepG2.117 cells; assay: Cell viability by CellTiter-Glo 2.0 (intracellular ATP) in HepG2.117 cells; type: cell-based; conditions: CellTiter-Glo 2.0, HepG2.117 cells, 3 days incubation
Compound,EC50 [1] [µM],CC50 [2] [µM]
"C=C[C@H](C)Nc1nc2c(c(=O)n1-c1ccc(C(=O)NC)cc1Cl)C[C@@H](C)N(C(=O)c1ccc(Br)c(C(F)(F)F)c1)C2 (atropisomer, axis not shown) [Compound 45, 4-[(6R)-7-[4-bromo-3-(trifluoromethyl)benzoyl]-6-methyl-2-[[(1S)-1-methylallyl]amino]-4-oxo-6,8-dihydro-5H-pyrido[3,4-d]pyrimidin-3-yl]-3-chloro-N-methyl-benzamide]",< 0.05,30.1
"C=C[C@H](C)Nc1nc2c(c(=O)n1-c1cc3ncn(C)c3cc1F)C[C@@H](C)N(C(=O)c1ccc(Br)c(C(F)(F)F)c1)C2 [Compound 32b, (R)-7-(4-bromo-3-(trifluoromethyl)benzoyl)-2-(((S)-but-3-en-2-yl)amino)-3-(6-fluoro-1-methyl-1H-benzo[d]imidazol-5-yl)-6-methyl-5,6,7,8-tetrahydropyrido[3,4-d]pyrimidin-4(3H)-one]",< 0.05,21.9
"C=CC(C)Nc1nc2c(c(=O)n1-c1ccc(C(=O)NC)cc1)C[C@@H](C)N(C(=O)c1ccc(Br)c(C(F)(F)F)c1)C2 (single isomer, unassigned) [Compound 2b]",< 0.05,> 0.5
"C=CC(C)Nc1nc2c(c(=O)n1-c1ccc(-c3[nH]nnc3C)cc1)C[C@@H](C)N(C(=O)c1ccc(Br)c(C(F)(F)F)c1)C2 (single isomer, unassigned) [Compound 3b]",< 0.05,> 0.5

# Reference: patent US11957683B2, “Bicyclic compounds” (Aligos Therapeutics, Inc., priority 2021, dated 2024)
